Source: patent publication EP0000636A1, “Penem compounds, processes for their preparation, their use in pharmaceutical compositions and azetidinones used in their preparation” (GLAXO GROUP LIMITED, priority 1977, dated 1979)
Values after ≈ are worked out from the molar mass of the structure shown. Read-outs that look alike come from different tables or passages of the source.

Tests used:
E. coli 851E = test: Determination of Minimum Inhibitory Concentrations (MIC), agar dilution; format: cell-based; settings: Escherichia coli
Description: (§1) Biological testing of a number of compounds of the invention has provided the results shown below;-the test compounds are identified by their Example Numbers: 1. Determination of Minimum Inhibitory Concentrations (MIC)
(§2) Serial two-fold dilutions of freshly prepared test solutions were made into Oxoid No. 1 Nutrient agar with or without added enrichment and poured into petri diches. Plates were inoculated with a multipoint inoculator with inoculum containing approximately 10^5 colony forming units of the organisms shown in the following Tables, all of which organisms are clinical isolates. The MIC, quoted in the Tables as µg/ml, was read after 18 hours incubation at 37°C as the lowest concentration which inhibited growth.. N.T. means not tested.

Staph.aureus 853E = test: as above; format: cell-based; settings: Staphylococcus aureus
Description: as §1, §2

Micrococcus Sp 1810E = test: as above; format: cell-based; settings: SP1810E
Description: as §1, §2

S. marcescens 1324E = test: as above; format: cell-based; settings: Serratia marcescens
Description: as §1, §2

K. aerogenes 1522E = test: as above; format: cell-based; settings: Klebsiella aerogenes
Description: as §1, §2

H. influenzae 1184E = test: as above; format: cell-based; settings: Haemophilus influenzae
Description: as §1, §2

E. cloacae 1051E = test: as above; format: cell-based; settings: Enterobacter cloacae
Description: as §1, §2

E. cloacae 1321E = test: as above; format: cell-based; settings: Enterobacter cloacae
Description: as §1, §2

Toxicity (LD50) in mice = settings: mouse, in vivo, ip; administered intraperitoneally to mice
[1] = E. coli 851E, clinical isolate, Oxoid No. 1 Nutrient agar, approximately 10^5 colony forming units, 18 hours at 37°C, read-out: MIC
[2] = Staph.aureus 853E, clinical isolate, Oxoid No. 1 Nutrient agar, approximately 10^5 colony forming units, 18 hours at 37°C, read-out: MIC
[3] = Micrococcus Sp 1810E, clinical isolate, Oxoid No. 1 Nutrient agar, approximately 10^5 colony forming units, 18 hours at 37°C, read-out: MIC
[4] = S. marcescens 1324E, clinical isolate, Oxoid No. 1 Nutrient agar, approximately 10^5 colony forming units, 18 hours at 37°C, read-out: MIC
[5] = K. aerogenes 1522E, clinical isolate, Oxoid No. 1 Nutrient agar, approximately 10^5 colony forming units, 18 hours at 37°C, read-out: MIC
[6] = H. influenzae 1184E, clinical isolate, Oxoid No. 1 Nutrient agar, approximately 10^5 colony forming units, 18 hours at 37°C, read-out: MIC
[7] = E. cloacae 1051E, clinical isolate, Oxoid No. 1 Nutrient agar, approximately 10^5 colony forming units, 18 hours at 37°C, read-out: MIC
[8] = E. cloacae 1321E, clinical isolate, Oxoid No. 1 Nutrient agar, approximately 10^5 colony forming units, 18 hours at 37°C, read-out: MIC

MIC (E. coli 851E; [1]) [µg/mL]	MIC (Staph.aureus 853E; [2]) [µg/mL]	MIC (Micrococcus Sp 1810E; [3]) [µg/mL]	MIC (S. marcescens 1324E; [4]) [µg/mL]	MIC (K. aerogenes 1522E; [5]) [µg/mL]	MIC (H. influenzae 1184E; [6]) [µg/mL]	MIC (E. cloacae 1051E; [7]) [µg/mL]	MIC (E. cloacae 1321E; [8]) [µg/mL]	SMILES	LD50 (Toxicity (LD50) in mice) [mg/kg]	MIC (E. coli 851E; 851E, 18 h) [µg/mL]	MIC (Staph.aureus 853E; 853E, 18 h) [µg/mL]	MIC (Micrococcus Sp 1810E; Micrococcus, 18 h) [µg/mL]	MIC (S. marcescens 1324E; 1324E, 18 h) [µg/mL]	MIC (K. aerogenes 1522E; 1522E, 18 h) [µg/mL]	MIC (H. influenzae 1184E; 1184E, 18 h) [µg/mL]	MIC (E. cloacae 1051E; 1051E, 18 h) [µg/mL]	MIC (E. cloacae 1321E; 1321E, 18 h) [µg/mL]
4	0.5	< 0.1	8	8	8	8	4	O=C(O)C1=C(CCO)SC2CC(=O)N12 (racemic) [Example 11, Potassium (5RS)-2-(2-hdroxethyl)pen-2-em-3-carboxylate]									
2 (≈ 7.74 µM)	< 0.1	< 0.1	4 (≈ 15.5 µM)	4 (≈ 15.5 µM)	2 (≈ 7.74 µM)	8 (≈ 31 µM)	2 (≈ 7.74 µM)	NC(=O)OCCC1=C(C(=O)O)N2C(=O)CC2S1 (racemic) [Example 18, (5RS)-2-(2-Carbamoyloxethyl)pen-2-em-3-carboxlic acid]									
4 (≈ 14.7 µM)	0.2 (≈ 0.735 µM)	< 0.1	4 (≈ 14.7 µM)	4 (≈ 14.7 µM)	4 (≈ 14.7 µM)	31 (≈ 114 µM)	4 (≈ 14.7 µM)	CNC(=O)OCCC1=C(C(=O)O)N2C(=O)CC2S1 (racemic) [Example 21]									
31 (≈ 136 µM)	0.5 (≈ 2.2 µM)		31 (≈ 136 µM)	31 (≈ 136 µM)	4 (≈ 17.6 µM)	125 (≈ 550 µM)	31 (≈ 136 µM)	CCCCC1=C(C(=O)O)N2C(=O)CC2S1 (racemic) [Example 26, (5RS)2-n-Butylpen-2-em-3-carboxylic acid]									
0.5 (≈ 2.34 µM)	< 0.1	< 0.1	1 (≈ 4.69 µM)	0.5 (≈ 2.34 µM)	1 (≈ 4.69 µM)	4 (≈ 18.8 µM)	0.5 (≈ 2.34 µM)	CCCC1=C(C(=O)O)N2C(=O)CC2S1 (racemic) [Example 28, (5RS)-2-ProD^ylpen-2-em-3-carboxylic acid]									
								CCC1=C(C(=O)[O-])N2C(=O)CC2[S+]1[O-].[K+] (racemic) [Example 36, Potassium (5RS)-2-ethylpen-2-em-3-carboxylate-1-oxide]	> 500	8	0.5	0.1	8	8	2	8	8
								O=C([O-])C1=C(CCOC2CCCCO2)SC2CC(=O)N12.[K+] (racemic) [Example 43, Potassium (5RS)-2-[2-(tetrahydropyran-2-yloxy)ethyl]-pen-2-em-3-carboxylate]	> 500								
								COCCC1=C(C(=O)[O-])N2C(=O)CC2S1.[Na+] (racemic) [Example 45, Sodium (5RS)-2-(2-methoxyethyl)pen-2-em-3-carboxylate]		2	0.5	< 0.1	8	4	4	8	2
4	0.5	0.2	4	4	4	8	2	COCC1=C(C(=O)O)N2C(=O)CC2S1 (racemic) [Example 52, Potassium (5RS)-2-methoxymethylen-2-em-3-carboxylate]									
								O=C(CCl)OCCC1=C(C(=O)[O-])N2C(=O)CC2S1.[K+] (racemic) [Example 57, Potassium (5RS)-2-[2-(2-chloroacetyl)oxyethyl]pen-2-em-3-carboxylate]		8	0.5	0.2	8	8	4	16	8
8 (≈ 43.2 µM)	1 (≈ 5.4 µM)	0.2 (≈ 1.08 µM)	8 (≈ 43.2 µM)	16 (≈ 86.4 µM)	4 (≈ 21.6 µM)	16 (≈ 86.4 µM)	8 (≈ 43.2 µM)	CC1=C(C(=O)O)N2C(=O)CC2S1 (single isomer, unassigned) [Example 6]									

SMILES	MIC (E. coli 851E; [1]) [µg/mL]	MIC (Staph.aureus 853E; [2]) [µg/mL]	MIC (Micrococcus Sp 1810E; [3]) [µg/mL]	MIC (S. marcescens 1324E; [4]) [µg/mL]	MIC (K. aerogenes 1522E; [5]) [µg/mL]	MIC (H. influenzae 1184E; [6]) [µg/mL]	MIC (E. cloacae 1051E; [7]) [µg/mL]	MIC (E. cloacae 1321E; [8]) [µg/mL]	LD50 (Toxicity (LD50) in mice) [mg/kg]	MIC (E. coli 851E; 851E, 18 h) [µg/mL]	MIC (Staph.aureus 853E; 853E, 18 h) [µg/mL]	MIC (Micrococcus Sp 1810E; Micrococcus, 18 h) [µg/mL]	MIC (S. marcescens 1324E; 1324E, 18 h) [µg/mL]	MIC (K. aerogenes 1522E; 1522E, 18 h) [µg/mL]	MIC (H. influenzae 1184E; 1184E, 18 h) [µg/mL]	MIC (E. cloacae 1051E; 1051E, 18 h) [µg/mL]	MIC (E. cloacae 1321E; 1321E, 18 h) [µg/mL]
CC(=O)OCCC1=C(C(=O)O)N2C(=O)CC2S1 (racemic) [Example 13, Potassium (5RS)-2-(2-acetoxethyl)pen-2-em-3-carbolate]	4	0.5	0.2	62	8		16	2									
